Experimental data published in ChEMBL document CHEMBL1153642, “Induction of apoptosis in HuH-7 cancer cells by monoterpene and beta-carboline indole alkaloids isolated from the leaves of Tabernaemontana elegans” (2009).
The source made the active and inactive calls. The calls are words filed in the database; no cut-off is given here.

Experiments:
Huh-7 [1] = assay: Induction of apoptosis in human HuH7 cells assessed as cell death after 24 hrs by trypan blue dye exclusion assay; format: functional, cell-based
Huh-7 [2] = assay: Induction of apoptosis in human HuH7 cells assessed as change in nuclear morphology after 72 hrs using Hoechst staining; format: functional
Huh-7 [3] = assay: Induction of apoptosis in human HuH7 cells assessed as change in nuclear morphology after 48 hrs using Hoechst staining; format: functional
Huh-7 [4] = assay: Induction of necrosis in human HuH7 cells; format: functional, cell-based
Huh-7 [5] = assay: Induction of apoptosis in human HuH7 cells assessed as increase in caspase-3 activity after 12 hrs; format: functional, cell-based
Huh-7 [6] = assay: Induction of apoptosis in human HuH7 cells assessed as change in nuclear morphology after 24 hrs using Hoechst staining; format: functional

| SMILES | Activity (Huh-7 [1]) | Activity (Huh-7 [2]) | Activity (Huh-7 [3]) | inhibition (Huh-7 [4]) | Activity (Huh-7 [5]) | Activity (Huh-7 [6]) |
| --- | --- | --- | --- | --- | --- | --- |
| Cc1cc2c([nH]c3ccccc32)c2[n+]1C(C)NCC2 (configuration not stated) | Active |  |  |  |  |  |
| Cc1cc2c3ccccc3n3c2c(n1)CCNC3C (configuration not stated) | Active |  |  |  |  |  |
| CC[C@@H]1CN(C)[C@H]2Cc3c([nH]c4ccccc34)C(=O)C[C@@H]1[C@H]2C(=O)OC [TABERNAEMONTANINE] |  | <25% | <25% | inactive | Active | 40% |
| C/C=C1/CN(C)[C@H]2Cc3c([nH]c4ccccc34)C(=O)C[C@H]1[C@@H]2C(=O)OC [VOBASINE] |  | <25% | <25% | inactive | Active | 40% |
